From patent US20120101032A1, “NOVEL MACROCYCLIC INHIBITORS OF HEPATITIS C VIRUS REPLICATION” (priority 2010, published 2012)
Where two headings read alike, the source gives them in different places.

Key:
[1] = tested on: hepatitis C replicon; assay: hepatitis C replicon EC50 assay; format: cell-based; settings: Hepatitis C virus
Text: NS3-NS4 inhibition activity can be determined using known assay methods.

[2] = biological target: NS3/NS4 complexes (Hepatitis C virus genotype 1a, UniProt P27958); assay: biochemical; settings: NS3-NS4 activity; 23° C., pH 7.5, 25 μM NS4A peptide; read-out: IC50
Outline: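 Read-outs are IC50 for inhibition of the NS3/NS4 complex and EC50 in an HCV replicon system. Biochemical runs use 23° C. and a 50 mM Tris-HCl (pH 7.5) buffer with 15% glycerol, 10 mM DTT, 0.6 mM LDAO and 25 μM NS4A peptide.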

[3] = hepatitis C replicon, read-out: EC50

NS3/NS4 complexes, sequence (P27958 1027-1657, one chain of several): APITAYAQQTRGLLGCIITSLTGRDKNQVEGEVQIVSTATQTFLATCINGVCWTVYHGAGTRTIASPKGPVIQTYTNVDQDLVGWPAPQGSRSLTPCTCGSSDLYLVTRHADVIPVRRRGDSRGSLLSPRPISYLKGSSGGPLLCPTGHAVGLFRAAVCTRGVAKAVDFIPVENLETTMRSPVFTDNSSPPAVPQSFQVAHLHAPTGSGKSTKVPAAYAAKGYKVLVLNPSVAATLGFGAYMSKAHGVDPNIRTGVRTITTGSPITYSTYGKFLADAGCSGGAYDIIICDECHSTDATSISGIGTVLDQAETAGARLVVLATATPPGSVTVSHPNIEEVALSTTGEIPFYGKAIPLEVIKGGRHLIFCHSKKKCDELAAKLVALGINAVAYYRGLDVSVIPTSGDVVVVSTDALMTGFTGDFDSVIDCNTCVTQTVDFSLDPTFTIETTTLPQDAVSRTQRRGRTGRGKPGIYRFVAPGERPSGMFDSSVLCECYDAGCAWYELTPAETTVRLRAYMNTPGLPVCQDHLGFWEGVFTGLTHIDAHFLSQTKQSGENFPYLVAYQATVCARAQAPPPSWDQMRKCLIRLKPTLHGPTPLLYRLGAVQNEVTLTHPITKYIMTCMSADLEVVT

Row | Compound | EC50 [1, 3] | IC50 [2] | EC50 [1]
1 | CC(C)n1c(O[C@@H]2C[C@H]3C(=O)N[C@]4(C(=O)NS(=O)(=O)C5(C)CC5)C[C@H]4/C=C\CCCCC[C@H](NC(=O)OC(C)(C)C)C(=O)N3C2)nc2c(-c3csc(N4CCN(C)CC4)n3)cccc21 [Compound 127] | < 10 nM | < 10 nM | –
2 | CC(C)n1c(O[C@@H]2C[C@H]3C(=O)N[C@]4(C(=O)NS(=O)(=O)C5(C)CC5)C[C@H]4/C=C\CCCCC[C@H](NC(=O)OC4CCCC4)C(=O)N3C2)nc2c(-c3nc(Cc4ccccc4)cs3)cccc21 [Compound 165] | < 10 nM | < 10 nM | –
3 | Cc1ccc2c(nc(O[C@@H]3C[C@H]4C(=O)N[C@]5(C(=O)NS(=O)(=O)N(C)C)C[C@H]5/C=C\CCCCC[C@H](NC(=O)OC(C)(C)C)C(=O)N4C3)n2C(C)C)c1-c1nc(C2CCCC2)cs1 [Compound 168] | 10 to 100 nM | < 10 nM | –
4 | CC(C)n1c(O[C@@H]2C[C@H]3C(=O)N[C@]4(C(=O)NS(=O)(=O)C5(C)CC5)C[C@H]4/C=C\CCCCC[C@H](NC(=O)OC(C)(C)C)C(=O)N3C2)nc2c(-c3csc(N4CCCC4)n3)cccc21 [Compound 125] | < 10 nM | < 10 nM | –
5 | CC(C)n1c(O[C@@H]2C[C@H]3C(=O)N[C@]4(C(=O)NS(=O)(=O)C5CC5)C[C@H]4/C=C\CCCCC[C@H](N)C(=O)N3C2)nc2c(-c3nc(C4CCCCC4)cs3)cccc21 [Compound 173] | > 100 nM | < 10 nM | –
6 | CC(C)(C)OC(=O)N[C@H]1CCCCC/C=C\[C@@H]2C[C@@]2(C(=O)NS(=O)(=O)C2(C)CC2)NC(=O)[C@@H]2C[C@@H](Oc3cc(-c4ccccc4)nc4c3CCCC4)CN2C1=O [Compound 402] | – | < 10 nM | < 10 nM
7 | CC(C)n1c(O[C@@H]2C[C@H]3C(=O)N[C@]4(C(=O)NS(=O)(=O)C5(C)CC5)C[C@H]4/C=C\CCCCC[C@H](NC(=O)OC(C)(C)C)C(=O)N3C2)nc2c(-c3cnccn3)cccc21 [Compound 126] | < 10 nM | < 10 nM | –
8 | Cc1ccc2c(nc(O[C@@H]3C[C@H]4C(=O)N[C@]5(C(=O)NS(=O)(=O)N(C)C)C[C@H]5/C=C\CCCCC[C@H](NC(=O)OC(C)(C)C)C(=O)N4C3)n2C(C)C)c1-c1nc(C(C)C)cs1 [Compound 167] | 10 to 100 nM | < 10 nM | –
